# Data published in patent US7074778B2, “Asthma associated factors as targets for treating atopic allergies including asthma and related disorders” (Genaera Corporation, priority 1999, dated 2006).
# Where two headings read alike, the source gives them in different places.
# Experiments:
# [1] = rat, in vivo, 1 mg/kg/day
# Protocol: To determine the mechanism by which 3-aminosteroid compounds function to suppress the asthmatic response to allergen, comparative physiologic assays were carried out utilizing the extensively studied Sprague-Dawley rat model (Scaccianoce et al., (1995) Neuroendocrinology 62, 32–38; Hatzinger et al., (1996) Neuroendocrinology 64, 349–356). Animals were administered 1 mg/kg/day of either the corticosteroid Dexamethasone or Compound-B and analyzed at ten hours for corticosterone and ACTH. […] Similar results were found for ACTH levels (>100 fold) supporting the finding that Compound-B is acting by a different mechanism from dexamethasone.
# [2] = 28 day tolerance study in Sprague-Dawley rats (weight, spleen); assay type: in vivo, rat; settings: drug administered for 28 days
# [3] = test system: mitogen or antigen stimulated murine or human lymphocytes; assay: PBMC proliferation assay (tritiated thymidine incorporation); assay type: cell-based; settings: Homo sapiens, Lymphocyte
# Protocol: (§1) Immunomodulatory 3-aminosteroids (FIGS. 3–7 and Table I) were identified in vitro based on their ability to inhibit homo- or hetero-typic aggregation and subsequent proliferation of mitogen or antigen stimulated murine or human lymphocytes. Human or mouse lymphocytes were isolated from peripheral blood by Ficoll-Hypaque as described (Stoeckert et al., (1990) Exp. Hematol. 18. 1164–1170). For mitogen stimulation, 1×10^5 cells per well were plated in varying amounts of 3-aminosteroid compounds and assayed for aggregation and proliferation after twelve hours of stimulation by PHA-PMA mitogens. […] For antigen stimulation, lymphocytes were isolated from BALBc mice which had been sensitized to Aspergillus fumigatus antigen for three weeks and plated at 1×10^5 cells per well with or without 100 units of Aspergillus fulmigatus antigen. Cells were grown for three days and then scored for cellular aggregates and proliferation as described above in the presence or absence of increasing amounts of Compound-B or analogue compounds. […] Similar results were obtained in assays using antigen mediated response to compounds (not shown). […] All of the active compounds shown in Table I as well as rational modifications of these compounds as depicted in FIGS. 8–10 are embodiments of the invention
# [4] = Solubility during work-up; assay type: physicochemical; settings: 10% acetonitrile/water, acidified with TFA
# Protocol: The reductive aminations were accomplished by similar procedures. The sterol (500 mg for, […] for compounds 7 and 8) was dissolved in 2-propanol (25 mL). Ethylenediamine (1 mL) was added to the flask. The 3-oxo sterol and ethylenediamine were allowed to stir at room temperature for approximately four hours. Sodium cyanoborohydride (250 mg for compound 6 and 100 mg for compounds 7 and 8) was dissolved in 2-propanol (2 mL) and acetic acid (1 mL). The sodium cyanoborohydride solution was added to the reaction flask after evolution of gas had almost ceased (approximately five minutes). In all cases the reaction was complete before the first TLC was taken (less than five minutes). The work-up was the same for all analogues, solution was made basic (pH 10–11) by the addition of carbonate buffer. The aqueous layer was repeatedly extracted with chloroform. The chloroform was removed in vacuo and the crude 3-aminosteroid was dissolved in 10% acetonitrile/water, acidified with TFA. The solubility of compound I was very poor. The solutions were passed through a […] Gelman vacu-cap filter. The 3-aminosteroid isomers were separated by reverse phase chromatography on C18 (Dynamax, 300, 8 μM, 21.6 mm ID, 25 cm/L) using a gradient of acetonitrile in water with 0.1% TFA throughout. […]
# [5] = test system: total serum IgG1, IgG2a and IgE; assay: Serum Ig ELISA in sensitized DBA2J mice; assay type: in vivo, mouse
# Protocol: Samples were centrifuged to separate cells and serum was collected and used to measure total IgG1, IgG2a and IgE levels. Samples not measured immediately were frozen at −20° C.
# Serum Igs were measured using an ELISA antibody-sandwich assay. Microtiter plates were coated, 50 μl per well, with rat anti-murine IgG1, IgG2a or IgE antibody (Southern Biotechnology and PharMingen) at a concentration of 2.5 μg/ml in coating buffer of sodium carbonate-sodium bicarbonate with sodium azide. Plates were covered with plastic wrap and incubated at 4° C. for sixteen hours. The plates were washed three times with a wash buffer of 0.05% Tween-20 in phosphate-buffered saline, incubating for five minutes for each wash. Blocking of nonspecific binding sites was accomplished by adding 200 μl per well 5% bovine serum albumin in phosphate-buffered saline, covering with plastic wrap and incubating for two hours at 37° C. After washing three times with wash buffer, duplicate 50 μll test samples were added to the wells. Test samples were assayed after being diluted 1:10, 1:50 and 1:100 with 5% bovine serum albumin in wash buffer. In addition to the test samples, a set of Ig standards (PharMingen) at various liner concentrations in 5% bovine serum albumin in wash buffer, were assayed to generate a standard curve. A blank of no sample or standard was used to zero the plate reader (background). After adding samples and standards, the plate was covered with plastic wrap and incubated for two hours at room temperature. After washing three times with wash buffer, 50 μl of secondary antibody rat anti-murine IgG1, IgG2a or IgE-horseradish peroxidase conjugate was added at a concentration of 250 ng/ml in 5% bovine serum albumin in wash buffer. […] After five to ten minutes the reaction was stopped with 50 μl of 12.5% sulfuric acid and absorbance was measured at 490 nm on a Dynatech® MR5000 plate reader. A standard curve was constructed from the standards with antigen concentration on the x axis (log scale) and absorbance on the y axis (linear scale). […]
# IL-9 = IL-9 expression in mitogen-stimulated lymphocytes (RT-PCR); assay type: cell-based, human; settings: FIG. 13
# Protocol: Total cellular RNA was extracted after 24 hours from cultured PBMC, murine spleen cells and M07e cells using RNA PCR corekit (Perkin-Elmer, Foster City Calif.) according to manufacturer's instructions. One microgram of RNA from each source was denatured for five minutes at 65° C. and then reverse transcribed into cDNA using a 20 μl reaction mixture containing 50 units of MLV Reverse Transcriptase, one unit per μl RNAse inhibitor. […] oligo d(T)16 primer, 1 mM each dATP, dCTP, dGTP, dTTP, 50 mM KCl, 10 mM Tris-HCl, pH 7.0, 25 mM MgCl2. The reaction mixture was pipetted into thermocycler tubes, placed in a PCR thermal cycler and subjected to one cycle (fifteen minutes at 42° C., five minutes at 99° C. and five minutes at 4° C.). A mock reverse transcription reaction was used as a negative control. […]
# Immunomodulatory 3-aminosteroids (FIGS. 3–7 and Table I) were identified in vitro based on their ability to inhibit homo- or hetero-typic aggregation and subsequent proliferation of mitogen or antigen stimulated murine or human lymphocytes. […] Cells were grown for three days and then scored for cellular aggregates and proliferation as described above in the presence or absence of increasing amounts of Compound-B or analogue compounds. […]
# [6] = test system: mice sensitized to antigen; assay: Airway hyperresponsiveness in mice sensitized to Aspergillus fumigatus antigen (APTI); assay type: in vivo, mouse
# Protocol: (§2) DBA2, C57BL6 or B6D2F1 mice, five to six weeks of age, were obtained from the National Cancer Institute or Jackson Laboratories. Animals were housed in high-efficiency particulate filtered air laminar flow hoods in a virus and antigen free facility and allowed free access to pelleted rodent chow and water for three to seven days prior to experimental manipulation. The animal facilities were maintained at 22° C. and the light:dark cycle is automatically controlled (10:14 hour cycle).
# (§3) Phenotyping and efficacy of pretreatment. Animals either received no pretreatment or were sensitized by nasal aspiration of Aspergillus fumigatus antigen to assess the effect on bronchial hyperresponsiveness, bronchoalveolar lavage and serum IgE. Mice were challenged with Aspergillus or saline intranasally (Monday, Wednesday and Friday for three weeks) and phenotyped twenty-four hours after the last dose. The effect of pretreatment by aminosteroids was used to assess the effect of down-regulating the IL-9 pathway in mice. To determine the bronchoconstrictor response, respiratory system pressure was measured at the trachea and recorded before and during exposure to the drug. Mice were anesthetized and instrumented as previously described. (Kleeberger et al., (1990) Am. J. Physiol. 258, L313–320; Levitt et al., (1995) Clin. Exp. Allergy 25, 61–63; Ewart et al., (1995) J. Appl. Physiol. 79, 560–566). Airway responsiveness was measured to one or more of the following: 5-hydroxytryptamine, acetylcholine, atracurium or a substance-P analogue. A simple and repeatable measure of the change in peak inspiratory pressure following bronchoconstrictor challenge was used which has been termed the Airway Pressure Time Index (APTI). The APTI was assessed by the change in peak respiratory pressure integrated from the time of injection until the peak pressure returns to baseline or plateau.
# (§4) Active compounds identified in vitro were tested in vivo for their ability to suppress airway hyperresponsiveness, lung eosinophilia and serum Ig levels using assays described above. […]
# [7] = test system: mitogen or antigen stimulated murine or human lymphocytes; assay: Lymphocyte aggregation assay (PHA-PMA mitogen stimulated); assay type: cell-based; settings: Homo sapiens, Lymphocyte, 12 h, aggregates of greater than 100 cells, PHA-PMA stimulation; read-out: Aggregation Assay Minimum Effective Conc.
# Protocol: as §1
# eosinophils = assay: Bronchoalveolar lavage cellular analysis (eosinophilia) in sensitized mice; assay type: in vivo, mouse; settings: FIG. 16
# From the text: as §3, with “plateau. […]” for “plateau.”
# D2 naive mice = assay: Bronchial hyperresponsiveness in D2 naive mice (APTI); assay type: in vivo, mouse; settings: FIG. 14
# Protocol: as §2, §3, §4
# [8] = FIG. 11 and FIG. 12, mitogen-stimulated lymphocytes, read-out: IC50 for suppression of lymphocyte aggregation and proliferation
# [9] = DBA2J mice sensitized to antigen, FIG. 15
structure (smiles),measurement,setting,value
C[C@@H]1C[C@H]2[C@@H]3CCC4=CC(=O)C=C[C@]4(C)[C@@]3(F)[C@@H](O)C[C@]2(C)[C@@]1(O)C(=O)CO [dexamethasone],suppression of ACTH levels,[1],> 100 fold
same,suppression of absolute levels of plasma corticosterone,[1],> 450 fold
same,body weight,[2],weight loss
same,spleen (splenic atrophy),[2]; FIG. 21,splenic atrophy
C[C@@H](CNC(=O)N1CCCC1)C1CCC2C3CC[C@@H]4C[C@@H](NCCN)CC[C@]4(C)C3CC[C@@]21C (stereo partly shown) [Compound-I],IC50,"[3]; tritiated thymidine incorporation, read-out: PBMC Proliferation ASSAY IC50",0.23 µg/mL
same,solubility,[4],very poor
COC(=O)CC[C@@H](C)C1CCC2C3C[C@@H](O)[C@H]4C[C@@H](NCCN)CC[C@]4(C)C3CC[C@@]21C (stereo partly shown) [Compound-A],IC50,[3]; [8],0.5 µg/mL
same,serum IgG2a (TH1 associated immunoglobulin),[5],not
same,total serum IgG1,[5]; FIG. 17,suppressed
same,total serum IgE,[5]; FIG. 18,suppressed
same,expression of IL-9 in mitogen-stimulated lymphocytes,IL-9,block the expression of IL-9
same,block of airway hyperresponsiveness,"[6]; BALBc mice, 2.5 mg/kg administered twice per week, FIG. 19",able to block airway hyperresponsiveness
same,block of airway hyperresponsiveness,[6]; [9],able to block airway hyperresponsiveness
same,efficacy compared with dexamethasone,[6]; [9],"more efficacious than the commonly used corticosteroid, dexamethasone"
same,minimal effective concentration,[7],1 µg/mL
same,eosinophilia (eosinophils in bronchoalveolar lavage),eosinophils,eosinophils were the particular cell type affected
COC(=O)CC[C@@H](C)C1CCC2C3C(CC[C@@]21C)[C@@]1(C)CC[C@H](NCCN)C[C@H]1C[C@H]3O (stereo partly shown) [Compound-B],IC50,[3]; [8],2.5 µg/mL
same,effective dose compared with Compound-D,D2 naive mice,effective at a lower dose than Compound-D
same,suppression of bronchial hyperresponsiveness,D2 naive mice; ip,effective in suppressing bronchial hyperresponsiveness
same,effect on plasma corticosterone,[1],no significant effect
same,expression of IL-9 in mitogen-stimulated lymphocytes,IL-9,block the expression of IL-9
same,minimal effective concentration,[7],10 µg/mL
